Assay results as given in paper PMC10318456, “Selective inhibitors of the PSEN1–gamma-secretase complex” (The Journal of Biological Chemistry, 2023).

How the values were obtained:
[1] = system: PSEN1 versus PSEN2 γ-secretase complexes; experiment: Comparison of the four MEF cell lines: selectivity between γ-secretase complexes (IC50 ratios); format: cell-based, human
Source text: Mouse embryonic fibroblast (MEF) cells deficient for the Psen and Aph1 genes (Psen1/2^−/−, Aph1ABC^−/−) were reconstituted with human PSEN1 or PSEN2 and with human APH1A or APH1B to generate four independent cell lines, each constitutively expressing exclusively one type of γ-secretase complex (Fig. S1A) ([19]). A human APP-C99-GFP reporter was introduced to enable the measurement of Aβ peptides in the conditioned media of the cells to monitor γ-secretase activity. The assay was established in a 96-well format.
GraphPad Prism 7 software was used to generate inhibition fitting curves (four-parameter logistic equation, nonlinear regression) and to determine IC50 and 95% CI values (Fig. S2). Selectivity values (IC50 ratios of PSEN1 versus PSEN2) above 10 are highlighted in red.
(§1) The number of plated cells and incubation times were determined in respect to linearity of Aβ peptide secretion, the dynamic range of Aβ peptide quantification in the medium, and sensitivity to dimethylsulfoxide (DMSO). […] MEF cells were plated in DMEM F12 supplemented with 10% FCS at 10,000 cells per well in 96-well clear bottom plates in the late afternoon and cultured for 16 h at 37 °C, 5% CO2. In the morning of the second day, the medium was replaced with 60 μl of DMEM/F12 supplemented with 2% FCS, and GSI or DMSO (controls) were added. Compounds were tested in serial dilutions with concentrations ranging from […] to 0.1 nM with 3-fold changes. The final concentration of DMSO in all wells was 0.2%. Plates were put in the incubator again at 37 °C, 5% CO2. After 8 h, the culture media were collected, and 30 μl was used to measure Aβ40 peptides. The cell viability was assessed using the CellTiter-Glo Luminescent assay (Promega) that measures ATP production. All screens were performed at one site, and reported IC50 values throughout the manuscript are from this site (Beerse) unless otherwise indicated.
GraphPad Prism 7 software (https://www.graphpad.com) was used to generate inhibition fitting curves (four-parameter logistic equation, nonlinear regression) and to determine IC50 values and 95% CI.

[2] = target: T1, PSEN1 L166A–APH1A γ-secretase complex (Homo sapiens, UniProt P49768, L166A); experiment: Aβ40 secretion, MEF cell pool restored with PSEN1 L166A–APH1A; format: cell-based; details: PSEN1 L166A (TM3)–APH1A cell pool; N = 3 to 4; mean (95% CI); decimal comma
T1 construct: expressed in transfected cells; host or cells: Psen1/2 double KO/Aph1ABC triple KO MEFs, pools without clonal selection
Experimental: (§2) We turned to experimental site–directed mutagenesis and selected a series of amino acids (Fig. 3) in the entrance channel for mutation to alanine. […] More importantly, they were all enzymatically active as shown by the secretion of Aβ40 in the supernatants of the cell cultures (Fig. 3B).
Conditional Psen1/2 double KO mice were crossed with conditional Aph1ABC triple KO mice ([29], [52], [58], [59]). At embryonic day 7.5, embryos were dissected and dissociated, and cells were plated in the presence of Dulbecco’s modified Eagle’s medium (DMEM)/F12 50% fetal calf serum (FCS) (Invitrogen). Primary MEFs were immortalized by transduction with LargeT antigen. Psen1/2 double KO/Aph1ABC triple KO MEFs were generated by transduction with a Cre-GFP–expressing adenoviral vector, and GFP-positive MEFs were sorted by fluorescence-activated cell sorting analysis. Psen1/2 Aph1ABC-deficient MEFs were maintained in DMEM/f12 10% FCS. […]
(§3) The number of plated cells and incubation times were determined in respect to linearity of Aβ peptide secretion, the dynamic range of Aβ peptide quantification in the medium, and sensitivity to dimethylsulfoxide (DMSO). […] The cell viability was assessed using the CellTiter-Glo Luminescent assay (Promega) that measures ATP production. […] We however measured five compounds at the Leuven site and noticed that absolute IC50 values were different (Fig. S2). […]

[3] = target: T2, PSEN1 L172A–APH1A γ-secretase complex (Homo sapiens, UniProt P49768, L172A); experiment: Aβ40 secretion, MEF cell pool restored with PSEN1 L172A–APH1A; format: cell-based; details: for increase in binding affinity by alanine substitution of L172: PSEN1 L172A versus WT
T2 construct: expressed in transfected cells; host or cells: Psen1/2 double KO/Aph1ABC triple KO MEFs, pools without clonal selection
Experimental: as §2
(§4) Conditional Psen1/2 double KO mice were crossed with conditional Aph1ABC triple KO mice ([29], [52], [58], [59]). At embryonic day 7.5, embryos were dissected and dissociated, and cells were plated in the presence of Dulbecco’s modified Eagle’s medium (DMEM)/F12 50% fetal calf serum (FCS) (Invitrogen). Primary MEFs were immortalized by transduction with LargeT antigen. Psen1/2 double KO/Aph1ABC triple KO MEFs were generated by transduction with a Cre-GFP–expressing adenoviral vector, and GFP-positive MEFs were sorted by fluorescence-activated cell sorting analysis. Psen1/2 Aph1ABC-deficient MEFs were maintained in DMEM/f12 10% FCS. To rescue γ-secretase expression, Psen1/2 double KO/Aph1ABC triple KO MEFs were transduced using Murine Stem Cell Virus retroviral vector system (pMSCV) viral vectors (Clontech) containing the human coding sequences of the different PSEN and APH1 homologs and the zeocin selection marker. An Internal Ribosome Entry Site sequence was cloned between the coding sequences for PSEN and APH1 to ensure co-expression of both proteins. Stable transfected cell lines were selected using 500-μg/ml zeocin (Invitrogen). Four different combinations were made: PSEN1 and APH1AL, PSEN1 and APH1B, PSEN2 and APH1AL, and PSEN2 and APH1B. These cell lines were transduced with pMSCV viral vectors (Clontech) expressing APP-C99-GFP-puromycin. After puromycin selection (5 μg/ml), GFP-positive cells were selected through FACS sorting. For the alanine mutagenesis experiment, pMSCV PSEN1-APH1A viral vectors were generated by using a long PCR-based QuikChange strategy (Stratagene). Stable cell lines without clonal selection were generated for each mutant as described above. All cell lines were regularly tested for the absence of mycoplasma and used for maximum 20 passages in culture.
as §1, with “indicated. We however measured five compounds at the Leuven site and noticed that absolute IC50 values were different (Fig. S2). The main goal of the current work is to explore the basis for inhibitor selectivity for different γ-secretases, and selectivity was consistent in the assays at the two sites (Fig. S2).” for “indicated.”
Standard 96-well SECTOR plates (MSD) were coated with 1.5 μg/ml anti-Aβ JRFcAβ40/28 capture antibody in a final volume of 50 μl of PBS 0.05% Tween 20. After overnight incubation at 4 °C, the plates were five times rinsed with PBS 0.05% Tween 20 and blocked with 150 μl per well of casein buffer (PBS with 1% casein, pH 7.4) for 4 h at room temperature. Standards (synthetic human Aβ 1–40) were diluted in culture media. […]

[4] = target: T3, PSEN1 I229A–APH1A γ-secretase complex (Homo sapiens, UniProt P49768, I229A); experiment: Aβ40 secretion, MEF cell pool restored with PSEN1 I229A–APH1A; format: cell-based; details: decimal comma; for IC50: PSEN1 I229A (TM5)–APH1A cell pool, N = 3 to 4, mean (95% CI); for IC50 fold change to WT: PSEN1 I229A–APH1A cell pool
T3 construct: expressed in transfected cells; host or cells: Psen1/2 double KO/Aph1ABC triple KO MEFs, pools without clonal selection
Experimental: as §2, §4
as §3, with “(DMSO). […] MEF cells were plated in DMEM F12 supplemented with 10% FCS at 10,000 cells per well in 96-well clear bottom plates in the late afternoon and cultured for 16 h at 37 °C, 5% CO2.” for “(DMSO).”

O=S(=O)(c1ccc(Cl)cc1)N1[C@H]2CC[C@@H]([C@H]1c1ccc(C(F)(F)F)cc1)[C@@H](O)C2 [(+)-9b]
selectivity for PSEN1 complexes versus PSEN2 complexes ([1]; IC50 ratios of PSEN1 versus PSEN2, MEF cell lines): > 250 fold | selectivity PSEN1–APH1B versus PSEN1–APH1A ([1]; MEF cell lines): 4 fold | IC50 [2]: 0.642 µM | increase in binding affinity by alanine substitution of L172 [3]: 3.1 fold | IC50 [4]: 0.042 µM | IC50 fold change to WT [4]: 1,440 fold

C[C@H](NC(=O)Cc1cc(F)cc(F)c1)C(=O)N[C@H](C(=O)OC(C)(C)C)c1ccccc1 [DAPT]
selectivity toward the different γ-secretase complexes ([1]; four MEF cell lines): < 10 fold | IC50 [2]: 1.37 µM | IC50 ([3]; PSEN1 L172A (TM3)–APH1A cell pool, N = 3 to 4, mean (95% CI), decimal comma): 0.0036 µM | increase in binding affinity by alanine substitution of L172 [3]: 47 fold | IC50 [4]: 0.334 µM | IC50 fold change to WT [4]: 1,980 fold
